# Experimental data published in patent US5654420A, “Process for preparing 2'-cyano pyrimidine nucleoside compounds” (Sankyo Company, Limited, priority 1990, dated 1997).
# Counter-ions that a name gives are not always drawn.
# System: KB human oral epidermoid carcinoma
# Assay: Antitumor activity in vitro (MTT method, 72 h), KB
# Type: cell-based
# Conditions: 37° C., read-out: IC50 (concentration necessary for inhibiting proliferation of the cells to 50%)
# Experimental: Antitumor activity was determined in vitro using a human cancer strain. As the culture medium for the cancer cell, an RPMI1640 solution containing 10% of […] bovine fetal serum 50 μg/ml of kanamycin was used. Cancer cells (1×10^4 cells/ml) were innoculated to 1 ml of the culture liquids containing samples at different concentrations, respectively, and cultured in a carbon dioxide gas incubator at 37° C. for 72 hours.
# Viability of the cancer cells was determined by MTT method in which the amount of living cells in the culture liquids containing the sample and that in culture liquids containing no sample (blank group) are measured based on the intensity of the visible light using [3-(4,5-dimethylthiazol-2-yl)-2,5-diphenyl-tetrazolium bromide] which develops color in proportion to the number of living cells. The intensity of antitumor activity was expressed by IC50 value (concentration (μg/ml) necessary for inhibiting proliferation of the cells to 50%). The IC50 value was obtained from a graph illustrating the relationship between % proliferation of the cancer cells in the sample containing group (% relative to the blank group) and the concentration (logalithmic) of the sample.
# KB: human oral epidermoid carcinoma
row,IC50 [µg/mL],Structure (SMILES)
1,15,"N#C[C@H]1[C@H](O)[C@@H](CO)O[C@H]1n1ccc(N)nc1=O [Example 9, 1-(2'-Cyano-2'-deoxy-β-D-arabinofuranosyl)cytosine monohydrochloride]"
2,7.6,"Cc1cn([C@@H]2O[C@H](CO)C=C2C#N)c(=O)[nH]c1=O [Example 12, 1-(2'-Cyano-2',3'-deoxy-2',3'-didehydro-β-D-ribofuranosyl)thymine]"
